Reference: patent US8138191B2, “Inhibitor compounds and cancer treatment methods” (Critical Outcome Technologies Inc., priority 2007, dated 2012)
Read-outs that look alike come from different tables or passages of the source.

What was measured:
U87 glioblastoma cells = experiment: Proliferation of U87 glioblastoma cells (alamarBlue), single agents and combinations with temsirolimus or rapamycin; format: cell-based; details: Homo sapiens; U87, single agent, triplicate experiments
Description: In vitro IC50 values were obtained for combinations of compounds of the present invention with temsirolimus or rapamycin in the treatment of U87 glioblastoma cells. Temsirolimus and rapamycin both inhibit proliferation of human U87 glioblastoma cells, as single agents (FIG. 14). […] Both inhibit proliferation of these cells with increasing concentration.
Temsirolimus was provided in liquid form from the London Regional Cancer Program (LRCP) Pharmacy. COTI-219 was prepared as a 50 mM stock in DMSO, then diluted to 10 mM in DMSO followed by serial dilution water for addition to medium overlaying cells. Cells were incubated with temsirolimus in combination with COTI-219 for 4 days (in wells of 96 well plates) followed by analysis of live cell density using the fluorescent vital stain alamarBlue.
All data points are means±SEM (n=6). Error bars are, in every case, smaller than the size of the symbol.
Rapamycin was prepared by crushing and extracting a tablet (supplied from the LRCP Pharmacy) with DMSO, followed by centrifugation to remove particulate matter. COTI-219 was prepared as a 50 mM stock in DMSO, then diluted to 10 mM in DMSO followed by serial dilution water for addition to medium overlaying cells. […]

DMS153 = experiment: Resistance testing over 5 generations, DMS153; format: cell-based, human; details: DMS153, 5 generations
Description: (§1) In order to evaluate the induction of resistance in vitro, compounds according to the invention were tested in head to head comparisons against conventional therapeutic agents Cisplatin® and Taxotere®. The compound designated COTI-4 (which is the subject of Applicant's co-pending U.S. provisional patent application entitled “Composition and Method for Treatment” filed Dec. 26, 2007) was also tested. The structure for COTI-4 is:
(§2) IC50 values were obtained using methods known to persons skilled in the art with two different human SCLC cell lines (DMS153 and SHP77) obtained from the National Cancer Institute. […] The procedure was repeated for a total of 5 generations. Emerging resistance was identified by increasing IC50 values in successive generations.

SHP77 = experiment: Resistance testing over 5 generations, SHP77; format: cell-based, human; details: SHP77, 5 generations
Description: as §1, §2

[1] = tested on: SHP-77 human SCLC cell line tumor xenografts; experiment: Nude mouse model of human SCLC, SHP-77 xenografts; format: in vivo; details: for average number of tumors per injection site / mean tumor volume: IP on alternate days from Day 3, 31 days
Description: The nude mouse model of human SCLC was used to evaluate the in vivo efficacy of compounds of the present invention in comparison with several known chemotherapeutic agents. Nude mice were obtained form the National Cancer Institute and the SHP-77 human SCLC cell line was chosen for metastatic tumor xenografts. The control group consisted of 10 animals, each of which were administered bilateral thigh injections of a prescribed volume of tumor cells. There were 6 treatment groups, each containing 5 animals: COTI-2, COTI-4, COTI-219, Taxotere® (docetaxel), Cisplatin® (cis-diamminedichloroplatinum) and Tarceva® (erlotinib) The therapeutic agent was administered by intraperitoneal (IP) injection on alternate days beginning on Day 3 post tumor cell injection. Each animal in a treatment group was administered bilateral thigh injections with the same prescribed volume of tumor cells as the control animals. Treatment continued for 31 days, following which the animals were euthanized and tissues were collected for subsequent analysis.

[2] = tested on: NCI/DTP 60 cell line panel; details: NOT including DMS114 and SHP-77; cited from earlier work
DMS114 cells = experiment: Proliferation with anti-cancer agents plus COTI-2, DMS114; format: cell-based, human; details: DMS114
SHP 77 cells = experiment: Proliferation with anti-cancer agents plus COTI-2, SHP 77; format: cell-based, human; details: SHP 77
U87 = experiment: IC50 human glioma/astrocytoma cell lines (alamar Blue), U87
SNB-19 = experiment: IC50 human glioma/astrocytoma cell lines (alamar Blue), SNB-19
CYP2B6 [3] = target: T1, CYP2B6 (Homo sapiens, UniProt P20813); details: both, 15 min, pH 7.4
T1 sequence (P20813 1-491): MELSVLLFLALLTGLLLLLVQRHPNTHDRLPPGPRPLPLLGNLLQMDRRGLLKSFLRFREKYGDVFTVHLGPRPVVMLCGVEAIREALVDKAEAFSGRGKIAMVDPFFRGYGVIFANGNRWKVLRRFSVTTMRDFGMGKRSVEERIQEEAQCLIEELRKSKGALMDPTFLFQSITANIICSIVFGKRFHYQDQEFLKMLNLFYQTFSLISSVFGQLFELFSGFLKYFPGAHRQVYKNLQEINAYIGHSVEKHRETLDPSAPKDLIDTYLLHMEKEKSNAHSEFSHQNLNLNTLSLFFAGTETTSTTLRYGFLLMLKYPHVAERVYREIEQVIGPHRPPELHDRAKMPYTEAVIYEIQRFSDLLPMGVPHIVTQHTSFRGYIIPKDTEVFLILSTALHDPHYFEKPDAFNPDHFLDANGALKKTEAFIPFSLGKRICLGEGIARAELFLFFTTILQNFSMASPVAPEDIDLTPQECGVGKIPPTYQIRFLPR

CYP2B6 [4] = target: T1, CYP2B6; experiment: biochemical
[5] = tested on: PI3K activity in SHP77 cells; experiment: PI3-K activity (PIP3 detection, Echelon kit), SHP77; format: cell-based, human; details: SHP77, 50 μM inhibitor + 250 nM COTI-2
Description: As a negative control, an equivalent volume of DMSO was utilized. […] To measure PI3-K activity, a commercial kit was purchased from Echelon. Following the procedures recommended by the manufacturer, membrane lipids were extracted in several steps and the resulting PIP3 was immobilized to nitrocellulose and measured by its interaction with a PH-domain containing protein and HRP-conjugated antibody supplied with the kit. As an additional control in these experiments, the specific PI3-K inhibitor, LY294002 was used to inhibit PI3-K and thus stop PIP3 production.

COLO-205 = experiment: Tumor cell proliferation, single agents and combinations, COLO-205; format: cell-based, human; details: for IC50: Homo sapiens
Description: (§3) The 3 cell lines were treated as follows:
(§4) Day 1: Cells were plated in 96-well flat bottom plates (VWR, Mississauga, ON, Canada) and allowed to adhere overnight.
(§5) All treated and control cells were, therefore, exposed to a 1% DMSO concentration plus the desired concentration of COTI-2.
(§6) The CI, a numerical value calculated as described in equation A, also provides a quantitative measure of the extent of drug interaction. A CI of less than, equal to, and more than 1 indicates synergy, additivity, and antagonism, respectively. CI=(CAx/ICx,A)+(CB,x/ICx,B) Equation A: Where CA,x and CB,x, are the concentrations of drug A and drug B used in combination to achieve x % drug effect. ICx,A and ICx,B are the concentrations for single agents to achieve the same effect.

SW620 = experiment: Tumor cell proliferation, single agents and combinations, SW620; format: cell-based, human; details: for IC50: Homo sapiens
Description: as §3, §4, §5, §6

H1975 = experiment: CellTiter-Blue growth inhibition, single agents and combinations, H1975; format: cell-based; details: Homo sapiens, NCI-H1975; H1975, NSCLC, EGFR - MUT, 72 h; read-out: Mean IC50, single agent
Description: (§7) The stock concentration was further diluted to 1 mM and added to a drug plate. […] Following dilution, 2 μl of test agent was transferred to the corresponding wells of a cell-containing 96-well plate with 198 μl of growth media. Tarceva® (erlotinib) was supplied by LC Labs (Woburn, Mass.).
(§8) Viable cell numbers were quantified by the CellTiter-Blue® cell viability assay, which measures the conversion of the indicator dye (resazurin) to resorufin, an indicator of cell viability. Experiments were repeated at least twice with the same concentrations to determine growth inhibitory activity.
as §6

H292 = experiment: CellTiter-Blue growth inhibition, single agents and combinations, H292; format: cell-based; details: Homo sapiens, NCI-H292; H292, NSCLC, EGFR - WT, 72 h; read-out: Mean IC50, single agent
Description: as §7, §8, §6

HCT-15 = experiment: Tumor cell proliferation, single agents and combinations, HCT-15; format: cell-based; details: Homo sapiens; HCT-15, Colon, KRAS - MUT; read-out: Mean IC50, single agent
Description: as §3, §4, §5, §6

Work on `CO[C@H]1C[C@@H]2CC[C@@H](C)[C@@](O)(O2)C(=O)C(=O)N2CCCC[C@H]2C(=O)O[C@H]([C@H](C)C[C@@H]2CC[C@@H](O)[C@H](OC)C2)CC(=O)[C@H](C)/C=C(\C)[C@@H](O)[C@@H](OC)C(=O)[C@H](C)C[C@H](C)/C=C/C=C/C=C/1C` [Rapamycin, rapamycin] yielded an IC50 (U87 glioblastoma cells) of 9900 nM.
For `CC(=O)O[C@@]12CO[C@@H]1C[C@H](O)[C@@]1(C)C(=O)[C@H](O)C3=C(C)[C@@H](OC(=O)[C@H](O)[C@@H](NC(=O)OC(C)(C)C)c4ccccc4)C[C@@](O)([C@@H](OC(=O)c4ccccc4)[C@H]21)C3(C)C` [Taxotere®, docetaxel, reference compound], the “emerging resistance: ratio of IC50 to IC50 of parental generation” value (“emerging resistance: ratio of IC50” below) (DMS153) was “significant increases in IC50”, the “emerging resistance: ratio of IC50” value (SHP77) was “significant increases in IC50” and the “average number of tumors per injection site” value [1] was 0.48. For the same molecule, the mean tumor volume [1] was 183 mm^3.
In the case of `Oc1[nH]c2ccccc2c1N=NC(=S)N1CCCCCC1` [NSC668496], the “Mean Over NCI/DTP 60 cell line panel (LogGI50)” value [2] is listed as −6.1.
With `Nc1ccn([C@@H]2O[C@H](CO)[C@@H](O)C2(F)F)c(=O)n1` [Gemcitabine, reference compound] the “effect of combination with COTI-2 on proliferation” value (“effect of combination” below) (DMS114 cells) was “additive effect” and the “effect of combination” value (SHP 77 cells) was “additive effect”.
Work on `CO[C@H]1C[C@@H]2CC[C@@H](C)[C@@](O)(O2)C(=O)C(=O)N2CCCC[C@H]2C(=O)O[C@H]([C@H](C)C[C@@H]2CC[C@@H](OC(=O)C(C)(CO)CO)[C@H](OC)C2)CC(=O)[C@H](C)/C=C(\C)[C@@H](O)[C@@H](OC)C(=O)[C@H](C)C[C@H](C)/C=C/C=C/C=C/1C` [Temsirolimus, temsirolimus] yielded an IC50 (U87 glioblastoma cells) of 3600 nM.
With `N.N.[Cl][Pt][Cl]` [Cisplatin, cis-diamminedichloroplatinum, reference compound] the IC50 (U87; U87, 4-7 days) was 490 nM, the IC50 (SNB-19; SNB-19, 4-7 days) was 870 nM and the “emerging resistance: ratio of IC50” value (DMS153) was “significant increases in IC50”. The “emerging resistance: ratio of IC50” value (SHP77) was “significant increases in IC50”, the “average number of tumors per injection site” value [1] was 0.48 and the mean tumor volume [1] was 132+/−26 mm^3.
For `C=CCNC(=S)N=Nc1c(O)n(CN2CCOCC2)c2ccc([N+](=O)[O-])cc12` [NSC716768], the “Mean Over NCI/DTP 60 cell line panel (LogGI50)” value [2] is given as −4.7.
For `COC(=O)[C@H](c1ccccc1Cl)N1CCc2sccc2C1` [Clopidogrel], the nH (CYP2B6 [3]) was 2.7 and the IC50 (CYP2B6 [4]) was 640 nM.
In the case of `COc1ccc(NC(=S)N=Nc2c(O)[nH]c3c(Cl)cc(Cl)cc23)cc1` [NSC73306], the “Mean Over NCI/DTP 60 cell line panel (LogGI50)” value [2] is given as −4.9.
For `O=c1cc(N2CCOCC2)oc2c(-c3ccccc3)cccc12` [LY294002, reference compound], the “PIP3 detected in the presence of the PI3K-inhibitor” value [5] was “approximately 14 pmol”.
For `CCC1=C[C@@H]2CN(C1)Cc1c([nH]c3ccccc13)[C@@](C(=O)OC)(c1cc3c(cc1OC)N(C)[C@H]1[C@@](O)(C(=O)OC)[C@H](OC(C)=O)[C@]4(CC)C=CCN5CC[C@]31[C@@H]54)C2` [Vinorelbine, reference compound], the “effect of combination” value (DMS114 cells) was “additive effect” and the “effect of combination” value (SHP 77 cells) was “additive effect”.
With `C#Cc1cccc(Nc2ncnc3cc(OCCOC)c(OCCOC)cc23)c1` [Tarceva®, erlotinib] the “highest concentration that did not significantly affect growth” value (COLO-205; COLO 205) was 10 µM, the IC50 (COLO-205; 96 h, read-out: concentration to reduce growth by 50% (IC50), COLO-205, 4 day assessment) was > 10000 nM and the IC50 (COLO-205; COLO-205, Colon, KRAS - WT, read-out: Mean IC50, single agent) was > 10000 nM. For the same molecule, the IC50 (SW620; SW-620, 96 h, read-out: concentration to reduce growth by 50% (IC50), SW620, 4 day assessment) was > 10000 nM, the IC50 (SW620; SW-620, SW620, Colon, KRAS - MUT, read-out: Mean IC50, single agent) was > 10000 nM and the “highest concentration that did not significantly affect growth” value (SW620; SW620) was 5 µM. The IC50 (H1975) was > 100000 nM, the IC50 (H292) was 20 nM and the “survival of treated animals to study conclusion” value ([1]; 31 days) was “died before study conclusion”. For the same molecule, the IC50 (HCT-15) was 5100 nM.
`O=NN(CCCl)C(=O)NCCCl` [BCNU, 1,3-Bis(2-chloroethyl)-1-nitrosourea, reference compound] showed an IC50 (U87; Homo sapiens, U-87 MG) of 1520 nM and an IC50 (SNB-19; Homo sapiens, SNB-19) of 2250 nM.
